We go through 28 compounds from ChEMBL document CHEMBL1141465, “The design, synthesis and structure-activity relationships of 1-aryl-4-aminoalkylisoquinolines: a novel series of CRF-1 receptor antagonists” (Bioorg Med Chem Lett, 2008).

≈ marks a conversion by molar mass, not a printed value.

In data set [1] the target is T1, Corticotropin-releasing factor receptor 1 (Homo sapiens, UniProt P34998).
T1 sequence (P34998 whole entry): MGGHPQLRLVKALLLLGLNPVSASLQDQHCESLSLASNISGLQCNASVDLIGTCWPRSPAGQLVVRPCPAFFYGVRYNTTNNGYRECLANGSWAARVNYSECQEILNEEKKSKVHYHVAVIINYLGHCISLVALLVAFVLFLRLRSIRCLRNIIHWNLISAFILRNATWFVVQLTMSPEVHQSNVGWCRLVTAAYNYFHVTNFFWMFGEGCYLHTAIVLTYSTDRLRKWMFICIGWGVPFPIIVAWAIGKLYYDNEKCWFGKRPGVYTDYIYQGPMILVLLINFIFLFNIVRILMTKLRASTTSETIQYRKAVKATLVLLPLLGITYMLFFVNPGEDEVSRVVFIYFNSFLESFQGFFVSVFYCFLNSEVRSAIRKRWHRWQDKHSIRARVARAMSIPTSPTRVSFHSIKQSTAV
The data set can be described thus: Displacement of [125I]sauvagine from CRF1 receptor expressed in human IMR32 cells. The data set is classed as cell-based, IMR-32. Background: Loss of bound radioactivity is the signal in a displacement assay; it reports binding, not function.

Data set [2] can be described thus: Solubility at pH 5.4. As to conditions: buffer. The data set is classed as physicochemical.
A short description of data set [3]: Clearance in po dosed rat. The class given is ADME, organism-based. As to conditions: in vivo.
Data set [4] in a line: Half life in po dosed rat. The data set is classed as ADME, organism-based. The conditions noted are these: in vivo.
Data set [5] is described as follows: Half life in rat liver microsomes. The class given is ADME, Microsome.
Data set [6] in a line: Oral bioavailability of rat at 20 mg/kg. The class given is ADME, organism-based. The conditions noted are these: in vivo.
A short description of data set [7]: Partition coefficient, log P of the compound. The data set is classed as physicochemical. The conditions noted are these: octanol/water.
A short description of data set [8]: Cmax in po dosed rat. As to conditions: in vivo. The class given is ADME, organism-based. The arrangement: route oral.
A short description of data set [9]: Tmax in po dosed rat. The data set is classed as ADME, organism-based. As to conditions: in vivo.
The test system of the next data set is Rattus norvegicus. Put plainly: Volume of distribution in po dosed rat. The data set is classed as ADME, organism-based. The conditions noted are these: in vivo.

A word on the Ki: it is the equilibrium dissociation constant of an inhibitor or competing ligand from its target. A low value points to a stronger hold on the target. Broadly, the solubility is the concentration that dissolves in the medium under given conditions. In data set [1], `COc1cc(C)cc(C)c1-c1nc(C)c(NCCN2CCCC2)c2ccccc12` gave a Ki of over 10000 nM. In data set [2], this compound returned a solubility of 103 µg/mL (≈ 264 µM).

In data set [1], `CCCN(CCn1ccnc1)c1c(C)nc(-c2c(C)cc(C)cc2OC)c2ccccc12` showed an inhibition constant (Ki) of 1060 nM. Besides, in [2], the concentration in solution (solubility) was 107 µg/mL (≈ 250 µM). The matching figures for `CCCN(CCC)c1c(C)nc(-c2c(C)cc(C)cc2OCCN(C)C)c2ccccc12`: 265 nM and 112 µg/mL (≈ 258 µM). Turning to `CCCN(CCC)c1c(C)nc(-c2c(C)cc(C)cc2OCCN2CCCCC2)c2ccccc12`, the Ki in data set [1] was 120 nM. For the same compound, the concentration in solution in data set [2] (solubility) came to 27 µg/mL (≈ 57 µM). `CCCN(CCC)c1c(C)nc(-c2c(C)cc(C)cc2OCCN2CCN(C)CC2)c2ccccc12` showed an inhibition constant Ki in data set [1] of 524 nM. Besides, the solubility in data set [2] worked out at 135 µg/mL (≈ 276 µM). Compound `CCCN(CCC)c1c(C)nc(-c2c(C)cc(C)cc2OCCN2CCC(O)CC2)c2ccccc12` returned a Ki in data set [1] of 41 nM. For the same compound, in [2], the concentration in solution (solubility) was 125 µg/mL (≈ 255 µM). The matching figures for `CCCN(CCC)c1c(C)nc(-c2c(C)cc(C)cc2OCCN2CCCC(O)C2)c2ccccc12` (stereo unspecified): 32 nM and 131 µg/mL (≈ 268 µM). As to `CCCN(CCC)c1c(C)nc(-c2ccc(Cl)cc2Cl)c2ccccc12`, the affinity in [1], expressed as Ki, was 103 nM. Take `CCCN(CCC)c1c(C)nc(-c2ccccc2)c2ccccc12`: the Ki in data set [1] was over 10000 nM. The compound `CCCN(CCC)c1c(C)nc(-c2cccc(Cl)c2)c2ccccc12` had an inhibition constant (Ki) in [1] of over 10000 nM. The same measure, in the same setting: with `CCCN(CCC)c1c(C)nc(-c2ccc(Cl)cc2)c2ccccc12` the figure was 962 nM. In [1], `CCCN(CCC)c1c(C)nc(-c2ccc(Cl)cc2C)c2ccccc12` yielded a Ki of 21 nM. `CCCN(CCC)c1c(C)nc(-c2ccc(OC)cc2CC)c2ccccc12` yielded a Ki in data set [1] of 36 nM. On the same count and under the same terms, with `CCCN(CCC)c1c(C)nc(-c2ccc(OC)cc2OC)c2ccccc12` the figure was 42 nM; with `CCCN(CCC)c1c(C)nc(-c2ccc(OC(F)F)cc2OC)c2ccccc12`, 17 nM.

Usually CL/F stands for clearance divided by bioavailability, as obtained after extravascular dosing. In general, half-life refers to the time needed for the level to fall by half in the phase considered. High values mean slow decline, low ones rapid decline. As a reminder, the bioavailability is the share of a dose that reaches the circulation, judged against a reference dose that is usually intravenous. As a reminder, the logP is the decadic logarithm of the partition coefficient of the neutral form, usually between octanol and water. A high value points to higher lipophilicity. What is called Cmax is the highest concentration seen after dosing. Usually Tmax stands for the time at which the peak concentration occurs. In the case of `CCCN(CCC)c1c(C)nc(-c2c(OC)cc(C(F)(F)F)cc2C(F)(F)F)c2ccccc12`, the apparent clearance CL/F in data set [3] came out at 14.5 mL/min/kg. Moreover, the half-life was 324 min in [4] and 36 min in data set [5]. The affinity in [1], expressed as Ki, was 8 nM. The compound also displayed a bioavailability in [6] of 4.8%. This compound also gave a solubility in data set [2] of under 0.5 µg/mL. Further, the logP in data set [7] is 5.7. Further, in [8], the concentration peaked (Cmax) at 387 ng/mL. Further, the time to peak (Tmax) in [9] was 42 min. For the same compound, the Vd with Rattus norvegicus was determined as 13 L/kg. Turning to `CCCN(CCC)c1c(C)nc(-c2c(C)cc(OC)cc2C)c2ccccc12`, in data set [1], the Ki came out at 26 nM. `CCCN(CCC)c1cnc(-c2c(C)cc(C)cc2OC)c2ccccc12` returned a Ki in [1] of 49 nM.

For the compound `CCCN(CCC)c1c(CC)nc(-c2c(C)cc(C)cc2OC)c2ccccc12`, in data set [1], the affinity, expressed as Ki, was 9 nM. Compound `COc1cc(C)cc(C)c1-c1nc(C)c(N(CC2CC2)CC2CC2)c2ccccc12` showed an inhibition constant Ki in [1] of 7 nM. Also, the solubility in data set [2] was under 0.5 µg/mL. In turn, `CCCNc1c(C)nc(-c2c(C)cc(C)cc2OC)c2ccccc12` yielded a Ki in data set [1] of 165 nM. `CCCN(CCC)c1c(C)nc(-c2ccccc2Cl)c2ccccc12` yielded a Ki in [1] of 1680 nM. For `CCCN(CCC)c1c(C)nc(-c2ccc(OC)cc2C)c2ccccc12`, the affinity in [1] corresponds to a Ki of 28 nM. `CCCN(CC1CC1)c1c(C)nc(-c2c(C)cc(C)cc2OC)c2ccccc12` yielded an inhibition constant (Ki) in data set [1] of 5 nM. Also, the solubility in data set [2] was under 0.5 µg/mL. Consider `CCCN(CCN1CCCC1)c1c(C)nc(-c2c(C)cc(C)cc2OC)c2ccccc12`, for which affinity in data set [1] was put at a Ki of 215 nM. In data set [2], this compound displayed a solubility of 120 µg/mL (≈ 278 µM).

The compound `CCCN(CCC)c1c(C)nc(-c2c(C)cc(C)cc2OCCN2CCCC2)c2ccccc12` had a Ki in [1] of 173 nM. In [2], this compound came in with a solubility of 105 µg/mL (≈ 228 µM). Consider `CCCN(CCC)c1c(C)nc(-c2c(C)cc(C)cc2OCCN2CCOCC2)c2ccccc12`, for which the Ki in [1] amounted to 30 nM. `CCCN(CCC)c1c(C)nc(-c2c(C)cc(C)cc2OC)c2ccccc12` had a Ki in data set [1] of 6 nM. The half-life in data set [5] turned out to be 4 min. The solubility in [2] was under 0.5 µg/mL. In addition, the logP in data set [7] stood at 4.6.
